Results taken from patent US11779531B2, “Anti-inflammatory peptides, and uses thereof” (NURITAS LIMITED, priority 2015, dated 2023).

System: TNF-α secretion in THP1 cells
Assay: TNF-α secretion by LPS-stimulated THP-1 differentiated cells after synthetic peptide treatment (Biolegend ELISA)
Assay type: cell-based, human
Conditions: THP-1 cells, synthetic peptide 100, 10 or 1 ng/ml for 24 h, then 10 ng/ml LPS 5 h; vs untreated control; concentration behind the value not stated
Protocol: FIGS. 1 to 18: The effect of eighteen synthetic peptides of the invention on TNF-secretion in THP1 cells. All experiments were prepared in duplicate on three plates (6 wells/conditions). Significance was calculated using Students t-test (*p<0.05 compared to control, **p<0.01 compared to control, *** p<0.001 compared to control). The figures correspond with the following SEQ ID Nos: FIG. 1 is SEQ ID NO: 339, FIG. 2 is SEQ ID NO: 352, FIG. 3 is SEQ ID NO: 341, FIG. 4 is SEQ ID NO: 351, FIG. 5 is SEQ ID NO: 144, FIG. 6 is SEQ ID NO: 93, FIG. 7 is SEQ ID NO: 320, FIG. 8 is SEQ ID NO: 92, FIG. 9 is SEQ ID NO: 75, FIG. 10 is SEQ ID NO: 76, FIG. 11 is SEQ ID NO: 349, FIG. 12 is SEQ ID NO: 350, FIG. 13 is SEQ ID NO: 105, FIG. 14 is SEQ ID NO: 177, FIG. 15 is SEQ ID NO: 345, FIG. 16 is SEQ ID NO: 353, FIG. 17 is SEQ ID NO: 344, FIG. 18 is SEQ ID NO: 346.
FIGS. 26 to 28. The effect of three synthetic peptides of the invention on TNF-secretion in THP1 cells. All experiments were prepared in duplicate on three plates (6 wells/conditions). Significance was calculated using Students t-test (*p<0.05 compared to control, **p<0.01 compared to control, ***p<0.001 compared to control). The figures correspond with the following SEQ ID Nos: FIG. 26 is SEQ ID NO: 85, FIG. 27 is SEQ ID NO: 91, FIG. 28 is SEQ ID NO: 420.
TNF-α is secreted by macrophages in response to stimulation by endotoxins such as lipopolysaccharides (LPS). TNF-α is thought to be involved in systemic inflammation and dysregulation of TNF-α production is thought to be involved in many diseases. The Biolegend assay is a sandwich ELISA kit that is designed for the accurate quantitation of human TNF-α from cell culture supernatant, serum or plasma.
THP-1 monocytes were seeded in a 96 well plate at 10,000 cells per well in RPMI containing 10% fetal calf serum (FCS), 1% Pen/strep, 1% L-glutamine, 100 nM PMA and allowed to differentiated for 72 h prior to experimentation.
Following differentiation the cells were incubated with 100 ng/ml, 10 ng/ml or 1 ng/ml synthetic peptide for 24 h respectively.
Following treatment the cells were stimulated with 10 ng/ml LPS for 5 h and the quantity of TNF-α in the supernatant determined using the Biolegend assay ELISA kit.
Results were calculated as a percentage of the untreated control. An increase in optical density reading indicates greater quantity of TNF-a release into cell culture supernatant.
All experiments were prepared in duplicate on three plates (6 wells/conditions). Significance was calculated using Students t-test (*p<0.05 compared to control, **p<0.01 compared to control, ***p<0.001 compared to control).

Substance	TNF-α DECREASE [%]
320 (RGPQQYAEWQINE) [compound 320]	13
351 (HGPVEMPYTLLYPSSK) [compound 351]	18
341 (RGPQQYA) [compound 341]	21
76 (EDDEEEEQGEEEINK) [compound 76]	9
144 (SIFRALPND) [compound 144]	16
420 (RLQSQNDQRGEIIHVK) [compound 420]	80
85 (SKPHTIFLPQHTDADYILVVLSGK) [compound 85]	80
349 (TVFDGVLRPGQL) [compound 349]	6
352 (LDALEPDNR) [compound 352]	23
346 (NGVLRPGQL) [compound 346]	18
93 (QLEELSK) [compound 93]	14
344 (GYYGEQQQQPGMTR) [compound 344]	20
92 (FFELTPEKNQQLQDLDLFVNSVDLK) [compound 92]	13
345 (IDGYDTPVEGR) [compound 345]	23
339 (QSFLLSGNQNQQ) [compound 339]	26
91 (PGQLQSFLLSGNQNQQNYLSGFSK) [compound 91]	80
105 (PSYEKQEDEEEKQK) [compound 105]	9
75 (LSSGDVFVIPAGHPVAVK) [compound 75]	11
